Assay results from patent US10064815B2, “Formulations and methods for vaginal delivery of antiprogestins” (REPROS THERAPEUTICS INC., priority 2014, dated 2018).

Legend:
vaginal mucous membrane = assay: Cumulative vaginal mucous membrane irritancy in rabbits; type: in vivo, New Zealand White rabbits; settings: rabbit
Protocol: Pullulan capsules (Capsugel NPcaps®, size 0) comprising CDB-4124 were administered once daily for 10 consecutive days intravaginally to 10 healthy virgin female New Zealand White rabbits in order to determine the cumulative vaginal mucous membrane irritancy potential and to obtain plasma samples for pharmacokinetic analysis. Five rabbits were assigned to each of two groups, the first dosed with vehicle control (pullulan capsules with 0.5 ml PEG 1000 fill) introduced into the upper vaginal vault of each rabbit using a syringe applicator (Group 1), the second with CDB-4124 (pullulan capsules with 12 mg CDB-4124 in 0.5 ml PEG 1000) (Group 2). The external vaginal mucosa of each animal was examined for erythema, edema and discharge prior to the initial dose, immediately prior to each treatment and prior to sacrifice. All animals were examined for gross pathology.

[1] = system: human females with uterine fibroids; assay: Efficacy of vaginal 12 mg CDB-4124 in women with uterine fibroids (menses, PBAC, UFSQOL); type: in vivo
Protocol: (§1) Capsugel NPcaps® were filled with the excipient fill formulations described above with 12 mg CDB-4124 (telapristone acetate) and administered vaginally to human females with uterine fibroids once per day for a period of 2 weeks to determine the length of time required to reach steady state and overall systemic exposure of the parent compound (CDB-4124) and the primary metabolite (CDB-4453). The capsules were administered using a commercially available vaginal applicator modified by reversing the insert (see FIG. 5). The unmodified applicator comprises a barrel and plunger with the barrel having a relatively wide opening on one end and a relatively narrow opening on the other end. The applicator is designed such that the drug is placed in the end with the larger diameter opening (entrance end), the applicator is inserted into the vagina and the plunger is used to push the drug out the barrel and into the vagina. For insertion of the filled NPcaps, the shell end of the capsule (having a […] diameter) was placed into the narrow opening in the barrel, leaving the cap exposed. […] Pharmacokinetic data was then obtained from patients.
In a previous oral study, doses of 1, 3, 6, 9 and 12 mg of CDB-4124 were administered for a period of 10 weeks. […] Cessation of menses directly correlates to efficacy of an oral dose in both uterine fibroids and endometriosis. […] Given the overall low exposure of the 12 mg dose, in those women that continued to menstruate, further improvements in reduction of symptoms are expected with longer exposure to the drug. In efficacy studies in which CDB-4124 was administered orally, women experienced a nearly 50% reduction in mean fibroid size at a 25 mg dose. When those women were then escalated to a 50 mg oral dose for an additional four months, fibroid size was reduced to approximately 25% of the initial volume. […] It is expected that vaginal delivery of CDB-4124 at the 12 mg dose will have greater activity than the oral 50 mg dose despite a maximum exposure 1/100th of the 50 mg oral dose. […]

uterine fibroids = assay: Previous oral studies of CDB-4124 (menses, fibroid size, symptoms); type: in vivo, human
Protocol: In a previous oral study, doses of 1, 3, 6, 9 and 12 mg of CDB-4124 were administered for a period of 10 weeks. […] Cessation of menses directly correlates to efficacy of an oral dose in both uterine fibroids and endometriosis. […] Given the overall low exposure of the 12 mg dose, in those women that continued to menstruate, further improvements in reduction of symptoms are expected with longer exposure to the drug. In efficacy studies in which CDB-4124 was administered orally, women experienced a nearly 50% reduction in mean fibroid size at a 25 mg dose. When those women were then escalated to a 50 mg oral dose for an additional four months, fibroid size was reduced to approximately 25% of the initial volume. […] It is expected that vaginal delivery of CDB-4124 at the 12 mg dose will have greater activity than the oral 50 mg dose despite a maximum exposure 1/100th of the 50 mg oral dose. Even with this low exposure after only 4 weeks of treatment, significant improvements in fibroid related condition have been observed.

[2] = Pharmacokinetics of vaginal pullulan capsules with 12 mg CDB-4124 in women with uterine fibroids, compared with oral doses; type: in vivo, human
Protocol: as §1

[3] = 12 mg CDB-4124 vaginally daily for 10 days
[4] = 12 mg vaginal, pair-wise comparison of 6 women

## COCC(=O)[C@@]1(OC(C)=O)CC[C@H]2[C@@H]3CCC4=CC(=O)CCC4=C3[C@@H](c3ccc(N(C)C)cc3)C[C@@]21C [CDB-4124, 21-methoxy-17α-acetoxy-11β-(4 N,N-dimethylaminophenyl)-19-norpregna-4,9-diene-3,20-dione]
Vaginal mucous membrane; [3]
  gross findings in ovaries, uterus, vagina: No gross findings
  histopathological findings: nor were any histopathological findings observed
Vaginal mucous membrane; 12 mg CDB-4124 vaginally daily for 10 days, 2/5 rabbits on 4 occasions, otherwise normal
  external vaginal mucosa (erythema, edema): very slight erythema and/or edema
Vaginal mucous membrane; pullulan capsules, 12 mg CDB-4124 in 0.5 ml PEG 1000, vaginally daily for 10 days
  irritation index: none
[1]; 12 mg vaginal dose, 6 women compared
  cessation of menses (number of women): 3
[1]; [4]
  statistical significance (p) of reduction in menstrual bleeding, Pictorial Blood Loss Assessment Chart (PBAC): < 0.05
  statistical significance (p) of reduction in overall uterine fibroid symptoms, UFSQOL: < 0.05
Uterine fibroids; escalated to 50 mg oral for an additional four months
  fibroid size as % of the initial volume: approximately 25%
Uterine fibroids; oral 1 mg
  efficacy of 1 mg oral dose: ineffective
Uterine fibroids; oral 25 mg dose
  reduction in mean fibroid size: ~50%
Uterine fibroids; oral 1, 3, 6, 9 and 12 mg for 10 weeks
  tolerability: all doses were well tolerated
Uterine fibroids; oral CDB-4124
  fibroid symptoms scored by UFSQOL: in general, symptom free
Uterine fibroids; oral, 10 weeks
  lowest dose inducing reliable cessation of menses: 3 mg
[2]; 12 mg vaginal dose
  maximum exposure relative to the 50 mg oral dose: 1/100
[2]; 12 mg vaginal versus 1, 3, 6, 9, 12 mg oral, FIG. 2
  Cmax compared with oral doses: lower than any of the oral doses
[2]; women with uterine fibroids, 12 mg vaginal pullulan capsule once per day
  time to steady state concentration: within one week
[2]; women with uterine fibroids, 12 mg vaginal versus oral, FIG. 1
  systemic exposure (AUC) relative to an equivalent oral dose: about ⅙
